Data taken from patent US12173330B2, “Method for producing hydroxy-L-pipecolic acid” (API CORPORATION, priority 2015, dated 2024).
Where two headings read alike, the source gives them in different places.

Experiments:
[1] = tested on: Micromonospora chokoriensis amino acid hydroxylase McPH (L-pipecolic acid 5-hydroxylase), wild type, SEQ ID NO: 2; type: biochemical
[2] = target: T1, Xenorhabdus doucetiae FRM16 L-proline cis-4-hydroxylase XdPH, SEQ ID NO: 8 (Xenorhabdus doucetiae, UniProt A0A068QPC1); type: biochemical; settings: for kcat: calculated from Vmax and molecular weight
T1 sequence (A0A068QPC1 1-294): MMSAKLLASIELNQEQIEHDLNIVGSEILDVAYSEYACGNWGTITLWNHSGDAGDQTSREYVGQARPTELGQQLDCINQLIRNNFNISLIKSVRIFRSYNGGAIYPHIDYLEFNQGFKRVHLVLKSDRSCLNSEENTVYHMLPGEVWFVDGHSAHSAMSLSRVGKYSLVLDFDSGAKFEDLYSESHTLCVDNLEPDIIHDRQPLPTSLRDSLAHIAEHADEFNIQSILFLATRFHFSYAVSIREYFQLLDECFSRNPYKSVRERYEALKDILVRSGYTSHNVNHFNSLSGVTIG

[3] = target: Sinorhizobium meliloti 1021 L-proline cis-4-hydroxylase SmPH, SEQ ID NO: 10 (Sinorhizobium meliloti, UniProt Q92LF6); type: biochemical; settings: for kcat: calculated from Vmax and molecular weight
[4] = tested on: Kordia jejudonensis amino acid hydroxylase KjPH, SEQ ID NO: 18; type: biochemical; settings: for Km / Vmax: 20 mmol/L 2-oxoglutaric acid, 30° C.; for kcat: calculated from Vmax and molecular weight
[5] = target: Gibberella zeae PH-1 L-pipecolic acid trans-4-hydroxylase GzPH, SEQ ID NO: 16 (Fusarium graminearum, UniProt I1RHG1)
[6] = target: Colletotrichum gloeosporioides Nara qc5 L-pipecolic acid trans-4-hydroxylase CgPH, SEQ ID NO: 12 (Colletotrichum fructicola, UniProt L2G7W2)
[7] = target: Segniliparus rugosus ATCC BAA-974 L-pipecolic acid cis-5-hydroxylase SruPH, SEQ ID NO: 4 (Segniliparus rugosus, UniProt E5XT07); settings: for Vmax: 20 mmol/L 2-oxoglutaric acid, 30° C.; for kcat: calculated from Vmax and molecular weight
[8] = target: T2, Catenulispora acidiphila NBRC102108 L-proline cis-4-hydroxylase CaPH, SEQ ID NO: 6 (Catenulispora acidiphila, UniProt C7Q927); type: biochemical; settings: substrate: L-proline; calculated from Vmax and molecular weight
T2 sequence (C7Q927 1-290): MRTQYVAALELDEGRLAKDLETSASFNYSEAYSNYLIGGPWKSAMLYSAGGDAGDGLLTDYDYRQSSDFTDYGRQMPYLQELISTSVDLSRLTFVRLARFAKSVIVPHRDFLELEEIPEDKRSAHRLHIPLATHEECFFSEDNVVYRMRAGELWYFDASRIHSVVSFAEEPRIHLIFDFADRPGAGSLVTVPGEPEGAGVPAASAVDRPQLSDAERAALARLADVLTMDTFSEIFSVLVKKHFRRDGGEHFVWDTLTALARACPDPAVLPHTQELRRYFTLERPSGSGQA

[9] = substrate: L-pipecolic acid, 20 mmol/L 2-oxoglutaric acid, 30° C.
[10] = substrate: L-pipecolic acid, calculated from Vmax and molecular weight
[11] = substrate: L-proline, 20 mmol/L 2-oxoglutaric acid, 30° C.

SMILES: O=C(O)[C@@H]1CCCCN1 [L-pipecolic acid]
- Km [1, 9]: 240 µM
- Vmax [1, 9]: 0.06 U/mg-protein
- kcat [1, 10]: 0.03
- kcat ([2]; substrate: L-pipecolic acid): 0.64
- kcat ([3]; substrate: L-pipecolic acid): 0.02
- Km ([4]; substrate: L-pipecolic acid): 490 µM
- Vmax ([4]; substrate: L-pipecolic acid): 0.30 U/mg-protein
- kcat ([4]; substrate: L-pipecolic acid): 0.16
- Vmax [5, 9]: 114.94 U/mg-protein
- kcat [5, 10]: 72.48
- Vmax [6, 9]: 70.42 U/mg-protein
- kcat [6, 10]: 43.80
- Vmax ([7]; substrate: L-pipecolic acid): 0.05 U/mg-protein
- kcat ([7]; substrate: L-pipecolic acid): 0.03

SMILES: O=C(O)[C@@H]1CCCN1 [L-proline]
- catalytic reaction efficiency for L-proline relative to that for L-pipecolic acid ([1]; kcat/Km ratio): 0
- kcat [8]: 0.01
- catalytic reaction efficiency for L-proline relative to that for L-pipecolic acid ([2]; kcat/Km ratio): 119%
- Vmax [2, 11]: 1.44 U/mg-protein
- kcat ([2]; substrate: L-proline): 0.80
- catalytic reaction efficiency for L-proline relative to that for L-pipecolic acid ([3]; kcat/Km ratio): 114%
- Vmax [3, 11]: 0.06 U/mg-protein
- kcat ([3]; substrate: L-proline): 0.03
- catalytic reaction efficiency for L-proline relative to that for L-pipecolic acid ([4]; kcat/Km ratio): 115%
- Km ([4]; substrate: L-proline): 480 µM
- Vmax ([4]; substrate: L-proline): 0.34 U/mg-protein
- kcat ([4]; substrate: L-proline): 0.18
- catalytic reaction efficiency for L-proline relative to that for L-pipecolic acid ([5]; kcat/Km ratio): 0
- catalytic reaction efficiency for L-proline relative to that for L-pipecolic acid ([6]; kcat/Km ratio): 0
- catalytic reaction efficiency for L-proline relative to that for L-pipecolic acid ([7]; kcat/Km ratio): 754%
- Vmax ([7]; substrate: L-proline): 0.13 U/mg-protein
- kcat ([7]; substrate: L-proline): 0.07
